Columns and labels:
[1] = system: histamine release on anaphylaxis in abdominal cavity; test: Histamine releasing inhibition test on anaphylaxis in abdominal cavity of rats; assay type: in vivo, rat (Sprague-Dawley strain); settings: oral, 3 hours before anaphylaxis; dose not given
Description: SRS-A and histamine releasing inhibition test on anaphylaxis in abdominal cavity of rats.
Male or female rats (Sprague-Dawley strain, delivered from Charles River, Japan Ltd., Tokyo) of 6-7 week age were used as the test animals. The test animals were devided into a group consisting of 6 animals in one group depending on their body weight. The animals were fasted overnight. The test was conducted by a method according to P. T. Orange et al.: "J. Immunol., Vol. 105", pages 1087-1095 (1970).
1 Milliliter each of twofold diluted anti-ovalbumin serm of rat was intraperitoneally injected to each of the test animal so as to have the rat sensitized. 2 Hours after the sensitization, 5 ml of Tyrode's solution containing 2 mg of ovalbumin and 250 micrograms of heparin sodium was intraperitoneally administered to the test animal to cause anaphylaxis. 5 Minutes after, the test animal was stunned by the blow on the head and was exsanguinated and killed by cervical incision. Additional 5 minutes later, the abdominal fluid was collected from the opening of the abdomen. The fluid collected was centrifuged at 4° C., first at 800 rpm, then at 2,500 rpm and the supernatant was collected, and stored at -80° C. until the bioassay was conducted. […]
The amount of SRS-A and histamine contained in the collected abdominal fluid was measured by a method similar to that employed in Pharmacological test-2.
Bio-assay of the collected abdominal fluid was conducted by using ileum of guinea pig which was treated with atropine. […] The isotonic contraction of the piece of the ileum was measured at 0.5 g of load by using an isotonic transducer "TD-112S" (manufactured by Nihon Koden Co., Ltd.). The measurements were recorded on an ink-writing recorder.
After stabilization of the contraction reaction due to histmine, the amount of histamine was measured quantitatively by observing the contraction of the piece of the ileum shown within 30 seconds after addition of 0.05-0.4 ml of the abdominal fluid. […]

5-lipoxygenase = target: T1, 5-lipoxygenase (Cavia porcellus, UniProt A0A286X958); test: 5-Lipoxygenase inhibitory activity (conversion of 14C-arachidonic acid to 5-HETE) in guinea pig peritoneal exudate cells; assay type: cell-based, guinea pig (Hartley strain); settings: read-out: inhibition ratio (%) of 5-lipoxygenase activity; for inhibition at 0.3 µM: concentration 3 × 10^-7 M; for inhibition at 1 µM: concentration 10^-6 M; for inhibition at 0.1 µM: concentration 10^-7 M
T1 construct: endogenous in cells; host or cells: guinea pig (Hartley strain) casein-elicited peritoneal exudate cells, intact cell suspension
T1 sequence (A0A286X958 1-674): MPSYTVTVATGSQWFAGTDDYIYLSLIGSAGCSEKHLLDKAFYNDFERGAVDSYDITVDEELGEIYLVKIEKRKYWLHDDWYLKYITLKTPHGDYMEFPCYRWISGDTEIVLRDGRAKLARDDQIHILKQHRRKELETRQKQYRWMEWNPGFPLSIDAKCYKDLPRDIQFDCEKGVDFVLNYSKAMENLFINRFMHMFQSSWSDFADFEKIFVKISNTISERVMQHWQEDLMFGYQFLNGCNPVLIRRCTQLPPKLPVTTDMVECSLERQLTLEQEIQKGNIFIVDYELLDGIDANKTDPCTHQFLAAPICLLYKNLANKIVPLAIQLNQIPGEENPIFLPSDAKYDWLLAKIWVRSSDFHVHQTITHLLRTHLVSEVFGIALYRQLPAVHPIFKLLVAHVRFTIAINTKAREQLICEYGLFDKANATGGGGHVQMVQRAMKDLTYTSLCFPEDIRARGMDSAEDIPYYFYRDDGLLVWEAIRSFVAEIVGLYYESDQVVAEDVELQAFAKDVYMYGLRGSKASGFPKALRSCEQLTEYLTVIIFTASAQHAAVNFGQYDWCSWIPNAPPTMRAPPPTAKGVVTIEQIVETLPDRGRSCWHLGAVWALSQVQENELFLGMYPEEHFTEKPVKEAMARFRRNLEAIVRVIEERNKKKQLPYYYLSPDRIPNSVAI
Description: 5-Lipoxygenase inhibitory activity of the present compounds was determined by a method according to procedures described in "J. Biol. Chem., Vol. 256, pages 4156-4159, (1981, Ibid. Vol. 258, pages 5754-5758 (1983).
(1) Preparation of Test Cells
A guinea pig (Hartley strain) (500-650 g body weight) was intraperitoneally administered with 2%-casein solution in 3/50 the volume of body weight. 14 Hours after the administration, the animal was sacrificed by bleeding and the peritoneal cavity was washed with Dulbecco's phosphate buffered saline (PBS) containing 3 U/ml of heparin and the exudate cells were harvested. The sample of cells was washed twice with Dulbecco's PBS (-), then the cells were suspended in Dulbecco's PBS (-), containing 1 mM of calcium chloride and 5.5 mM of glucose, so as to make a suspension having the concentration of 2.5×10^7 cells/ml.
To 0.2 ml of the above-mentioned cell suspension was added 10^-5 M of Indomethacine, and incubated at 30° C. for 2 minutes. Each of the appropriate concentrations of test compounds was added to the suspension respectively, further incubated for 2 minutes. Next, 10 μm of Ionophore A23187 (manufactured by Calbiochem-Behring, San Diego, Calif., U. S. A) was added to the suspension, further, 10 μm of ^14 C-arachidonic acid (manufactured by Amersham Japan, Ltd., Tokyo, Japan) was added and initiated the reaction. 3 Minutes after the initiation of the reaction, 0.1 ml of 0.2M-citric acid was added so as to terminate the reaction. 1.2 Milliliters of ethyl acetate was added to the reaction mixture and shaked for 5 minutes. The reaction mixture was centrifuged at 3,000 rpm for 5 minutes so as to separate the organic layer from the aqueous layer. 1 Milliliter of the organic layer (the upper layer) was dehydrated by passing through a mini-column packed with anhydrous sodium sulfate. The dehydrated organic layer was dried under nitrogen gas stream. The residue obtained was dissolved in ethyl acetate, and the total amount of the ethyl acetate solution was spotted onto thin layer chromochromatography (TCL) plate (Art. 11845 manufactured by E. Merck A. G.). The TCL was carried out with a mixed solvent of diethyl ether:petroleum:ether:acetic acid (50:50:1 volume/volume), then the radioactive metabolites on the plate were detected by using "Ultrafilm ^3 H" (a trademark for a X-ray film, manufactured by LKB Co.). Each fractions corresponding to the metabolites was scraped in to a scintillation vial, and 5 ml of "Scintilator ACS-II" (manufactured by Amersham Japan, Ltd.), was added then the radio-activity was determined by means of a liquid scintillation counter.

inhibition at 0.3 µM (5-lipoxygenase) | inhibition at 1 µM (5-lipoxygenase) | inhibition at 0.1 µM (5-lipoxygenase) | SMILES | Inhibitory rate (%) Histamine [1]
84% | 87% | 61% | COC1=CC(=O)C(OC)=C(CCCCCC#CCCCCCC2=C(OC)C(=O)C=C(OC)C2=O)C1=O [Test Compound No. 16, 2,2'-(6-Dodecynylene)bis(3,6-dimethoxy-1,4-benzoquinone)] | 8.0%
55% | 74% | 38% | COC1=CC(=O)C(OC)=C(CCCCCC2=C(OC)C(=O)C=C(OC)C2=O)C1=O [Test Compound No. 9, 2,2'-Pentamethylenebis(3,6-dimethoxy-1,4-benzoquinone)] | -3.6%
72% | 91% | 43% | COC1=CC(=O)C(OC)=C(CCCCCCCCCC2=C(OC)C(=O)C=C(OC)C2=O)C1=O [Test Compound No. 13, 2,2'-Nonamethylenebis(3,6-dimethoxy-1,4-benzoquinone)] | 10.9%
